Test results taken from US20160324820A1, “PHARMACEUTICAL COMPOSITIONS COMPRISING 15-HEPE AND METHODS OF TREATING ASTHMA AND LUNG DISORDERS USING SAME” (Dignity Sciences Limited, priority 2014, published 2016).

Test system: Hartley guinea pigs
Experiment: Histamine-induced bronchoconstriction following seven days of oral gavage in anesthetized, ventilated guinea pigs
Type: in vivo, guinea pig
Details: for Change from baseline Respiratory Resistance (ventilator pressure), Average RR / Change from baseline Respiratory Resistance (ventilator pressure), Average VP: n=3
Description: In an embodiment, the pharmacodynamics of a composition comprising 15-HEPE as disclosed herein may be examined using a model of a lung disease or disorder. In a more detailed embodiment, the effects of a composition comprising a vehicle, a positive control or 15-HEPE on ventilator pressure in histamine challenged guinea pigs serves as a model for the pharmacodynamics in asthma. In an exemplary method, guinea pigs are first dosed with compositions comprising a vehicle, a positive control or 15-HEPE for seven days. The treated guinea pigs can then be anesthetized and exposed to a nebulized bronchoconstictor to determine if 15-HEPE can reduce the increase in ventilatory pressure induced by a bronchoconstrictor. This serves as an effective model for asthma and other lung diseases. The guinea pig is a reliable animal model in respiratory research due to their respiratory sensitivity and their expression of similar respiratory reactions to those observed in humans. […] Adult male Hartley guinea pigs weighing approximately 450-500 g were acclimated least 5 days before the day of the beginning of the oral gavages. Animals were assigned to one of four groups (low dose, high dose, vehicle and positive control) and were double-housed per group during acclimation period. The test article was formulated using olive oil as the vehicle. A low and a high dose of 15-HEPE (50 mg/kg and 500 mg/kg) was formulated. A 1 mg/ml stock solution of bambuterol was prepared in an aqueous solution, and was then mixed with olive oil in the gavage syringe for the […]. The stock solution was stored at −20° C., but was used at room temperature and was considered stable for the duration of the experiment. A 5 μg/ml stock solution of histamine dihydrochloride (Sigma Aldrich) was prepared in a saline solution (0.9% NaCl). The stock solution was stored at 4° C. The expiration date was set at 14 days after preparation. The concentrations of positive control, (bambuterol 0.27 mg/kg/day) and the hypertensor (histamine 0.184, 0.919 and 1.84 μg/kg) were selected based on literature references. Each group received the designated compound by oral gavage using a 1 ml syringe. The dosing schedule was as follows: • Vehicle (olive oil) • Bambuterol 0.27 mg/kg/day • 15-HEPE 50 mg/kg/day • 15-HEPE 500 mg/kg/day The stock solutions were administered once per day for seven consecutive days. On the seventh dosage day the animals underwent surgery two hours after the oral feeding. All animal care and vivarium maintenance were recorded, with documents kept at the test facility. Guinea pigs were anesthetized with an intraperitoneal injection of urethane (1.5 g/kg). A tracheotomy was performed and the animals were mechanically ventilated throughout the experiment. The ventilatory pressure was recorded and analyzed for signs of bronchospasm. A pulse oxymeter was attached to each animal's hind paw to obtain heart beat and oxygen saturation on the anaesthetized guinea pigs to continuously monitor the general condition of the animals during the surgical procedure. Following baseline measurements, three doses of histamine (0.184, 0.919 and 1.84 μg/kg) were nebulized (constant volume tidal, 60 respirations per minute, 7.5 ml/sec), with an interval of 20 minutes between each dose, or until a steady state was reached. Respiratory resistance, heart rate, and oxygen saturation were monitored continuously for a period of about 1 hour post challenge. At the end of the experiment, the animals were euthanized by exsanguination. Clampfit 10.2.0.14 analysis software (Axon Instruments), installed on networked personal computers running Microsoft Windows was used. Clampfit 10.2.0.14 has been fully validated in the connected context in which it was used. The graphics software for illustrations is Microsoft Office Excel 2007 installed on networked personal computers running Microsoft Windows. […]

[1] = 15-HEPE 500 mg/kg/day gavage 7 days, nebulized histamine 0.184 (μg/kg)
[2] = 15-HEPE 500 mg/kg/day gavage 7 days, nebulized histamine 0.919 (μg/kg)
[3] = 15-HEPE 500 mg/kg/day gavage 7 days, nebulized histamine 1.84 (μg/kg)
[4] = bambuterol 0.27 mg/kg/day gavage 7 days, nebulized histamine 0.184 (μg/kg)
[5] = bambuterol 0.27 mg/kg/day gavage 7 days, nebulized histamine 0.919 (μg/kg)
[6] = bambuterol 0.27 mg/kg/day gavage 7 days, nebulized histamine 1.84 (μg/kg)

CCC=CCC(O)C=CC=CCC=CCC=CCCCC(=O)O (stereo not shown) [15-HEPE, 15-Hydroxy-eicosa-5,8,11,13,17-pentaenoic acid] was tested, and the “Change from baseline Respiratory Resistance (ventilator pressure), Guinea pig #1” value (from here on “Change … Guinea pig #1”) [1] was 0.2098 mmHg, the “Change from baseline Respiratory Resistance (ventilator pressure), Guinea pig #2” value (from here on “Change … Guinea pig #2”) [1] was 1.657 mmHg and the “Change from baseline Respiratory Resistance (ventilator pressure), Guinea pig #3” value (from here on “Change … Guinea pig #3”) [1] was 0.6489 mmHg. The “Change from baseline Respiratory Resistance (ventilator pressure), Average RR” value (from here on “Change … Average RR”) [1] was 0.84 mmHg, the “Change … Guinea pig #1” value [2] was 0.8494 mmHg and the “Change … Guinea pig #2” value [2] was 1.37 mmHg. The “Change … Guinea pig #3” value [2] was 2.34 mmHg, the “Change … Average RR” value [2] was 1.52 mmHg and the “Change … Guinea pig #1” value [3] was 2.169 mmHg. The “Change … Guinea pig #2” value [3] was 1.791 mmHg, the “Change … Guinea pig #3” value [3] was 3.913 mmHg and the “Change … Average RR” value [3] was 2.62 mmHg. The lung ventilatory pressure (test animals challenged with a bronchoconstrictor, result in words) was “improve lung ventilatory pressure”.
CN(C)C(=O)Oc1cc(OC(=O)N(C)C)cc(C(O)CNC(C)(C)C)c1 (stereo not shown) [Bambuterol, bambuterol, reference compound] was tested, and the “Change … Guinea pig #1” value [4] was 0.2759 mmHg, the “Change … Guinea pig #2” value [4] was −0.05857 mmHg and the “Change … Guinea pig #3” value [4] was 1.238 mmHg. The “Change from baseline Respiratory Resistance (ventilator pressure), Average VP” value (“Change … Average VP” below) [4] was 0.48 mmHg, the “Change … Guinea pig #1” value [5] was 1.099 mmHg and the “Change … Guinea pig #2” value [5] was 1.219 mmHg. The “Change … Guinea pig #3” value [5] was 2.266 mmHg, the “Change … Average VP” value [5] was 1.53 mmHg and the “Change … Guinea pig #1” value [6] was 2.215 mmHg. The “Change … Guinea pig #2” value [6] was 1.945 mmHg, the “Change … Guinea pig #3” value [6] was 2.651 mmHg and the “Change … Average VP” value [6] was 2.27 mmHg.
